Experimental findings from US7557116B2, “Substance which exhibits antiviral and antibacterial activity and is based on derivatives of 2,8-dithioxo-1H-pyrano[2,3d 6,5-d′]dipyrimidyne and 10-aza-analogue thereof” (priority 2003, dated 2009) are described below.

Holding throughout (assay type): cell-based
Test [1] relates to Herpes virus of type I. The test is described as follows: Protection of Vero cells from Herpes virus of type I. The conditions noted are these: for Number of cells: number of cells in 100 fields.
For test [2], the system named is Influenza virus B.
Test [3] relates to Chlamydia trachomatis D323. The experiment in a line: Protection of cell culture from Chlamydia trachomatis (immunofluorescence, cytoplasmatic inclusions). From the text: The antiviral activity of the claimed compounds were also all tested against the Chlemydia trachomatis. The effects of the claimed compounds on the Chlamydia trachomatis are charted in TABLE 4. A relative strain of Chlamydia trachomatis D323 was used to test the claimed compounds. The strain, derived from a patient with Chlamydia urethritis, comprised a morphology and a physiological activity characteristic of and representative of that type. An infection dose of Chlamydia having a concentration of 1/10^6 cells/ml was introduced into a cell culture. Immunofluorescence (MicroTrack Chlamydia trachomatis Direct Specimen Test) was conducted to determine the significance of the chlamydial cytoplasmatic inclusions (CPI). A CylaMonoScreen was conducted to obtain the chlamydia antigens. The monolayer state and the number of cells with CPI were compared to the control to determine the effects the claimed compounds have on the chlamydia. The number of unchanged cells in 100 visual fields were counted utilizing a special net on a microscopic eyepiece.

In test [4] the test system is Influenza virus A.
Where [5] appears, read: Influenza virus B, 72 hours at 33-34 C, ineffective when IN less than 1.0.
Setting [6] is: Influenza virus A, 48 hours at 33-34 C, ineffective when IN less than 1.0.

Where two headings read alike, the source gives them in different places. Marks after values point to notes of the source that are not given here.

As to “4-chlorine-6-hydroxi-5-aryl-5,9-dihydro-1H-pyrano[2,3d: 6,5-d′]dipyrimidine-2-8-dition [Iib]”, the “percentage of protection of cells from virus” value (“percentage … from virus” for short) came out at 70% in test [1] (compound 10 mg/l), 90% in test [1] (compound 50 mg/l) and 100% in test [1] (compound 100 mg/l). Moreover, the Number of cells in test [1] (compound 10 mg/l) is given as 8400; in test [1] (compound 50 mg/l), 10800; in test [1] (compound 100 mg/l), 12000.
As to `Nc1nc2c(ncn2COCCO)c(=O)[nH]1` [Acyclovir, reference compound], in test [1] (compound 10 mg/l), the “percentage … from virus” value is recorded as “(80%)****” and the Number of cells is on record as 9600***.
Regarding `Nc1nc(=S)[nH]c2c1C(c1ccc([N+](=O)[O-])cc1)c1c(Cl)nc(=S)[nH]c1O2` (centres unmarked) [IV, 4-chlorine-6-amino-5-(4-dinytrophenyl)-5,9-dihydro-1H-pyrano[2,3-d: 6,5-d′]dipyrimidine-2,8-dition], the Index of neutralization in test [2] (setting [5]) turned out to be 1.5; in test [4] (setting [6]), 2.0. Moreover, the “Percentage of cells' defense from C. trachomatis” value (from here on “Percentage of cells' defense”) in test [3] (compound 30 mg/l) was 50%; in test [3] (compound 100 mg/l) it was 80%. The “percentage … from virus” value in test [1] (compound 10 mg/l) was 50%; in test [1] (compound 50 mg/l) it was 70%; in test [1] (compound 100 mg/l), 80%. In addition, the Number of cells in test [1] (compound 10 mg/l) was determined as 6000; in test [1] (compound 50 mg/l), 8400; in test [1] (compound 100 mg/l), 9600.
On to `CN(C)c1nc(=S)[nH]c2c1C(c1ccc([N+](=O)[O-])cc1)c1c(O)nc(=S)[nH]c1O2` (centres unmarked) [IX, 4-dimethylamine-6-hydroxi-5-(4-nitrophenyl)-5,9-dihydro-1H-pyrano[2,3-d: 6,5-d′]dipyrimidine-2,8-dition], for which the Index of neutralization in test [2] was determined as 1.5; in test [4], 2.0. Besides, the results for the “Percentage of cells' defense” value in test [3] (compound 30 mg/l) and in test [3] (compound 100 mg/l) were 50% and 80%, respectively. In addition, the “percentage … from virus” value in test [1] (compound 10 mg/l) is 50%; in test [1] (compound 50 mg/l), 70%; in test [1] (compound 100 mg/l), 80%. Moreover, the Number of cells came out at 6000 in test [1] (compound 10 mg/l), 8400 in test [1] (compound 50 mg/l) and 9600 in test [1] (compound 100 mg/l).
Take `Oc1nc(=S)[nH]c2c1C(c1ccccc1)c1c(Cl)nc(=S)[nH]c1O2` (centres unmarked) [Ia, 4-chlorine-6-hydroxi-5-aryl-5,9-dihydro-1H-pyrano[2,3d: 6,5-d′]dipyrimidine-2,8-dition]: the “percentage … from virus” value in test [1] (compound 10 mg/l) was found to be 60%; in test [1] (compound 50 mg/l), 80%; in test [1] (compound 100 mg/l) it was 90%. In addition, the Number of cells in test [1] (compound 10 mg/l) turned out to be 7200; in test [1] (compound 50 mg/l) it was 9600; in test [1] (compound 100 mg/l) it was 10800.
On to `O=[N+]([O-])c1ccc(C2c3c(Cl)nc(=S)[nH]c3Oc3[nH]c(=S)nc(Cl)c32)cc1` [Iia, 4,6-dichlorine-5-(4-nitrophenyl)-5,9-dihydro-1H-pyrano[2,3-d: 6,5-d′]dipyrimidine-2,8-dition], for which the Index of neutralization in test [2] (setting [5]) and in test [4] (setting [6]) was 1.5 in each case. Also, the “Percentage of cells' defense” value in test [3] (compound 30 mg/l) stood at 70%; in test [3] (compound 100 mg/l) it was 90%.
Consider `Nc1nc(=S)[nH]c2c1C(c1ccc([N+](=O)[O-])cc1)c1c(N)nc(=S)[nH]c1N2` [VI, 4,5-diamino-10-(4-nytrophenyl)-9,10-dihydro-1H,8H-1,3,6,8,9-pentaazaantrecen-2,7dition], for which the Index of neutralization in test [2] (setting [5]) worked out at 1.5; in test [4] (setting [6]) it was 20. Moreover, the “Percentage of cells' defense” value in test [3] (compound 30 mg/l) is listed as 50%; in test [3] (compound 100 mg/l) it was 80%. In addition, the results for the “percentage … from virus” value in test [1] (compound 10 mg/l), in test [1] (compound 50 mg/l) and in test [1] (compound 100 mg/l) were 70%, 90% and 100%, respectively. The Number of cells is reported as 8400 in test [1] (compound 10 mg/l), 10800 in test [1] (compound 50 mg/l) and 12000 in test [1] (compound 100 mg/l).
Turning to `CNc1nc(=S)[nH]c2c1C(c1ccc([N+](=O)[O-])cc1)c1c(O)nc(=S)[nH]c1O2` (centres unmarked) [VIII, 4-methylamino-6-hydroxi-5-(4-nitrophenyl)-5,9-dihydro-1H-pyrano[2,3d: 6,5-d′]dipyrimidine-2,8-dition], the Index of neutralization was found to be 1.5 in test [2] (setting [5]) and 2.0 in test [4] (setting [6]). In addition, the entries for the “Percentage of cells' defense” value in test [3] (compound 30 mg/l) and in test [3] (compound 100 mg/l) were 70% and 90%, respectively.
For `O=[N+]([O-])c1ccc(C2c3c(O)nc(=S)[nH]c3Oc3[nH]c(=S)nc(Sc4nc(O)cc(O)n4)c32)cc1` (centres unmarked) [X, 4-(4,6-dihydroxipirimidine-2sulfanil)-6-hydroxi-5-(4-nytrophenyl)-5,9-dihydro-1H-pyrano [2,3-d: 6,5-d′]dipyrimidine-2,8-dition], the Index of neutralization in test [2] (setting [5]) is 1.0; in test [4] (setting [6]), 1.5. In addition, the “Percentage of cells' defense” value in test [3] (compound 30 mg/l) came out at 60%; in test [3] (compound 100 mg/l), 100%. Moreover, the “percentage … from virus” value in test [1] (compound 10 mg/l) amounted to 60%; in test [1] (compound 50 mg/l) it was 80%; in test [1] (compound 100 mg/l), 90%. The values for the Number of cells in test [1] (compound 10 mg/l), in test [1] (compound 50 mg/l) and in test [1] (compound 100 mg/l) were 7200, 9600 and 10800, respectively.
Turning to `O=[N+]([O-])c1ccc(C2c3cnc(=S)[nH]c3Oc3[nH]c(=S)nc(O)c32)cc1` (centres unmarked) [XI, 6-hydroxi-5-4-(4-nitrophenyl)-5,9-dihydro-1H-pyrano[2,3-d: 6,5-d′]dipyrimidine-2,8-dition], the Index of neutralization in test [2] (setting [5]) and in test [4] (setting [6]) was 1.5 throughout. Moreover, the “Percentage of cells' defense” value in test [3] (compound 30 mg/l) amounted to 50%; in test [3] (compound 100 mg/l), 90%. For the same compound, the results for the “percentage … from virus” value in test [1] (compound 10 mg/l), in test [1] (compound 50 mg/l) and in test [1] (compound 100 mg/l) were 50%, 70% and 80%, respectively. Further, the Number of cells in test [1] (compound 10 mg/l) stood at 6000; in test [1] (compound 50 mg/l), 8400; in test [1] (compound 100 mg/l), 9600.
On to `O=[N+]([O-])c1ccc(C2c3c(O)nc(=S)[nH]c3Oc3[nH]c(=S)nc(O)c32)cc1` [XII], for which the “Percentage of cells' defense” value is recorded as 40% in test [3] (compound 30 mg/l) and 60% in test [3] (compound 100 mg/l). Also, the “percentage … from virus” value in test [1] (compound 10 mg/l) is recorded as 10%; in test [1] (compound 50 mg/l), 30%; in test [1] (compound 100 mg/l), 50%. The values for the Number of cells in test [1] (compound 10 mg/l), in test [1] (compound 50 mg/l) and in test [1] (compound 100 mg/l) were 1200, 3600 and 6000, respectively.
